# Tests used:
# human GlyT1c transporter = human GlyT1c transporter (Homo sapiens (Human), UniProt P48067); test: Radioligand binding assay using recombinant CHO cell membranes expressing human GlyT1; conditions: read-out: radioligand binding Kiapp
# Description: 2. Radioligand Binding Assays Using Recombinant CHO Cell Membranes Expressing Human GlyT1:
# Radioligand binding to human GlyT1c transporter-expressing membranes was determined as described in Mezler et al., Molecular Pharmacology 74:1705-1715, 2008.
# MDR1 (P-gp) = MDR1 (P-gp) (Homo sapiens (Human), UniProt P08183); test: Efflux ratio in MDR1-MDCK bidirectional transport; type: in vitro ADME; conditions: dog; MDR1-MDCK cell monolayers, 1 μM in HBSS-pH 7.4, 1 h incubation at 37 C
# Description: 3. Determination of Efflux Ratio Using Madin-Darby Canine Kidney Type II Cells
# Bidirectional transport experiments were performed on Madin-Darby Canine Kidney Type II cells over-expressing multidrug resistance protein 1 (MDR1-MDCK) to evaluate the compounds as potential P-gp substrates.
# Compounds were added at 1 μM in HBSS-pH 7.4 (hanks balanced salt solution) to either the apical or basolateral side of MDR1-MDCK cell monolayers grown on Millicell 96-Cell polycarbonate filters. Samples were collected from both apical and basolateral sides at time 0 and after 1 h incubation at 37 C, compounds concentrations were measured by HPLC/MS/MS and permeability coefficients were then determined in both transport directions. The efflux ratio was subsequently calculated from the permeability coefficient.
# Sequence of human GlyT1c transporter (P48067 whole entry): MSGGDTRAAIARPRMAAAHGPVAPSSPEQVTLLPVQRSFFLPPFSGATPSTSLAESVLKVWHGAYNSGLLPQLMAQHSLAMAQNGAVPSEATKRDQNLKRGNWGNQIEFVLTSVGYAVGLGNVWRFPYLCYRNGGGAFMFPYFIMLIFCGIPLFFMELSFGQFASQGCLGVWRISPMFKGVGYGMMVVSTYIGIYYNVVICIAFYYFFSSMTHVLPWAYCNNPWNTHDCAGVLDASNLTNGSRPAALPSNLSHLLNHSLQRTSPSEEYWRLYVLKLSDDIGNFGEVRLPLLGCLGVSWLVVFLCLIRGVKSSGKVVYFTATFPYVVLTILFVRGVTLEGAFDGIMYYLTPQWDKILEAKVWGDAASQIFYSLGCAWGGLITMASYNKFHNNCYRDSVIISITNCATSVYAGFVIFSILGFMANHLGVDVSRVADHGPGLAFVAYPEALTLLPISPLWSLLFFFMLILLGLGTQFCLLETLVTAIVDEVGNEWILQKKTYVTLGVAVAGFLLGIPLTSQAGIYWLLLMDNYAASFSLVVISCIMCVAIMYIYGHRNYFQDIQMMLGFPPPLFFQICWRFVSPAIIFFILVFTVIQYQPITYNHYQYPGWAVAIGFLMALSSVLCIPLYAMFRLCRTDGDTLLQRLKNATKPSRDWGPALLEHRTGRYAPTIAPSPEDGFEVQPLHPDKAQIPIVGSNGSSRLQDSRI
# Sequence of MDR1 (P-gp) (P08183 whole entry, species assumed): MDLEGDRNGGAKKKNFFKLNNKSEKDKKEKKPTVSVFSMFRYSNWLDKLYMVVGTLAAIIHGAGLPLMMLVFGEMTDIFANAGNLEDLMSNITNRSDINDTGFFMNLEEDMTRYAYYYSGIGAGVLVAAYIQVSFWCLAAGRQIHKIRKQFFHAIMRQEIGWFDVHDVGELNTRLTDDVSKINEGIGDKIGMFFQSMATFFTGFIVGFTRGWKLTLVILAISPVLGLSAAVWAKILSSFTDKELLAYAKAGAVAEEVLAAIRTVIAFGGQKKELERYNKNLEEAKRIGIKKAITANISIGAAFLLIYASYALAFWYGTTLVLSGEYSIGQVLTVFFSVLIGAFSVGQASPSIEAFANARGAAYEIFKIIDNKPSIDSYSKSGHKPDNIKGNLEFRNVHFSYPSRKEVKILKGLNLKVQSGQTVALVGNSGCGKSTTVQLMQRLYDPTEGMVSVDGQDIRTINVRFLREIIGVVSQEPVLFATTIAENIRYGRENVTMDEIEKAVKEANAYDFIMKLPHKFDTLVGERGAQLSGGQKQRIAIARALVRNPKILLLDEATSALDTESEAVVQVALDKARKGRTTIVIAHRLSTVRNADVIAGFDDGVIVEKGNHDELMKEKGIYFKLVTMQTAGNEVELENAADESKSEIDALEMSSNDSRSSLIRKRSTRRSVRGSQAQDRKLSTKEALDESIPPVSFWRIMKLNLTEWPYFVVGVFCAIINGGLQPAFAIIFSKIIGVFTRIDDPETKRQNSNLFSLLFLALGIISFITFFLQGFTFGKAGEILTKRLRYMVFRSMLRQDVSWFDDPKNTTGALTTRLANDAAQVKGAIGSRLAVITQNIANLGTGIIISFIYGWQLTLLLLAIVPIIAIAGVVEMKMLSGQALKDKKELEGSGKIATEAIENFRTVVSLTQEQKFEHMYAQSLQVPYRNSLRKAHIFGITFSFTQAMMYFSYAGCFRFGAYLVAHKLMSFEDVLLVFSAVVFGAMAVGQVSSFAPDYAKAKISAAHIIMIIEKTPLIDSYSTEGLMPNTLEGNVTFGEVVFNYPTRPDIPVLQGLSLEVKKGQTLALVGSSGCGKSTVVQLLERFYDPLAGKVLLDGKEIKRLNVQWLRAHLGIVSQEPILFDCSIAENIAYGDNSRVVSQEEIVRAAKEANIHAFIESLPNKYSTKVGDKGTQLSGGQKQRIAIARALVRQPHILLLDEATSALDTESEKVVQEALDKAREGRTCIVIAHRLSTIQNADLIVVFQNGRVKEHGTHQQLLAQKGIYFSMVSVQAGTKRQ
SMILES,Ki (human GlyT1c transporter),"efflux ratio at 1 h, 1 μM (MDR1 (P-gp))"
"CCCS(=O)(=O)NCc1ccc2c(c1)C(Cc1ccccc1)C(NC1(C#N)COC1)CC2 (centres unmarked) [Example 7, N-((8-Benzyl-7-(3-cyanooxetan-3-ylamino)-5,6,7,8-tetrahydronaphthalen-2-yl)methyl)propane-1-sulfonamide]",< 1000 nM,–
"N#CC1(NC2CCc3ccc(CNS(=O)(=O)C4CCC4)cc3C2Cc2ccccc2)COC1 (centres unmarked) [Example 8, N-((8-Benzyl-7-(3-cyanooxetan-3-ylamino)-5,6,7,8-tetrahydronaphthalen-2-yl)methyl)cyclobutanesulfonamide]",< 1000 nM,–
"N#CC1(NC2CCc3ccc(CNS(=O)(=O)CC4CC4)cc3C2Cc2ccccc2)COC1 (centres unmarked) [Example 9, N-((8-Benzyl-7-(3-cyanooxetan-3-ylamino)-5,6,7,8-tetrahydronaphthalen-2-yl)methyl)-1-cyclopropylmethanesulfonamide]",< 100 nM,3.5
"Cn1cnc(S(=O)(=O)NCCOc2cc3c(cc2C#N)CCC(N2CC4CC4C2)C3Cc2ccccc2)c1 (centres unmarked) [Example 10, N-[2-({7-[3-Azabicyclo[3.1.0]hex-3-yl]-8-benzyl-3-cyano-5,6,7,8-tetrahydronaphthalen-2-yl}oxy)ethyl]-1-methyl-1H-imidazole-4-sulfonamide(2E)-but-2-enedioate]",< 1000 nM,–

# Next, values leading:
Ki (human GlyT1c transporter),"efflux ratio at 1 h, 1 μM (MDR1 (P-gp))",SMILES
< 10 nM,3.2,"Cn1cnc(S(=O)(=O)NCc2ccc3c(c2)C(Cc2ccccc2)C(N2CC4CC4C2)CC3)c1.O=C(O)/C=C/C(=O)O (stereo not drawn) [Example 1, cis-N-({7-[3-Azabicyclo[3.1.0]hex-3-yl]-8-benzyl-5,6,7,8-tetrahydronaphthalen-2-yl}methyl)-1-methyl-1H-imidazole-4-sulfonamide(2E)-but-2-enedioate]"
< 10 nM,–,"Cn1cnc(S(=O)(=O)NCCOc2ccc3c(c2)C(Cc2ccccc2)C(N2CC4CC4C2)CC3)c1 (centres unmarked) [Example 2, N-[2-({7-[3-Azabicyclo[3.1.0]hex-3-yl]-8-benzyl-5,6,7,8-tetrahydronaphthalen-2-yl}oxy)ethyl]-1-methyl-1H-imidazole-4-sulfonamide(2E)-but-2-enedioate]"
< 10 nM,–,"Cn1cc(S(=O)(=O)NCCOc2ccc3c(c2)C(Cc2ccccc2)C(N2CC4CC4C2)CC3)cn1 (centres unmarked) [Example 3, N-[2-({7-[3-Azabicyclo[3.1.0]hex-3-yl]-8-benzyl-5,6,7,8-tetrahydronaphthalen-2-yl}oxy)ethyl]-1-methyl-1H-pyrazole-4-sulfonamide(2E)-but-2-enedioate]"
< 1000 nM,–,"Cn1cnc(S(=O)(=O)NCCOc2ccc3c(c2)C(Cc2ccccc2F)C(N2CC4CC4C2)CC3)c1 (centres unmarked) [Example 5, N-(2-{[7-[3-Azabicyclo[3.1.0]hex-3-yl]-8-(2-fluorobenzyl)-5,6,7,8-tetrahydronaphthalen-2-yl]oxy}ethyl)-1-methyl-1H-imidazole-4-sulfonamide]"
< 1000 nM,–,"CCS(=O)(=O)NCc1ccc2c(c1)C(Cc1ccccc1)C(NC1(C#N)COC1)CC2 (centres unmarked) [Example 6, N-((8-Benzyl-7-(3-cyanooxetan-3-ylamino)-5,6,7,8-tetrahydronaphthalen-2-yl)methyl)ethanesulfonamide]"

# Source: US8846741B2, “N-substituted aminobenzocycloheptene, aminotetraline, aminoindane and phenalkylamine derivatives, pharmaceutical compositions containing them, and their use in therapy” (AbbVie Deutschland GmbH & Co. KG, priority 2011, dated 2014)
